Patent US6943183B2 (Pfizer Inc, priority 2000, dated 2005)

Molecular target: T1, SF9 affinity purified rat FPT (Rattus norvegicus, UniProt Q02293+Q04631)
T1 construct: made in house; host or cells: Sf9 insect cells
Test: PFT (FPT) inhibitory activity assay, radiolabeled farnesyl pyrophosphate and biotinyl peptide, streptavidin beads
Format: biochemical
Settings: HEPES buffer pH 7.4, 30° C., 30 minutes; read-out: FTase IC50
Outline: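 Rat FPT expressed in SF9 cells was incubated 30 minutes at 30° C. with compound (in 10% DMSO), radiolabeled farnesyl pyrophosphate and biotinylated peptide. Buffer: HEPES pH 7.4, ZnCl2 20 μM, MgCl2 and DTT 5 mM each, 0.1% PEG 8000, 5 mM potassium phosphate (also run without phosphate). Product captured on streptavidin beads in magnesium acetate/H3PO4 stop buffer.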

C[C@@H](O)CNC(=O)c1ccc(S(=O)(=O)Cc2c(O[C@H](Cn3ccnc3)c3ccccc3)ccc3c2CCCC3=O)cc1 [Compound 203, N-[(2R)-2-Hydroxypropyl]-4-{[(2-{[(1S)-2-(1H-imidazol-1-yl)-1-phenylethyl]oxy}-5-oxo-5,6,7,8-tetrahydro-1-naphthalenyl)methyl]sulfonyl}benzamide]
IC50: 1.2 nM

C[C@@H](O)CNC(=O)c1cccc(S(=O)(=O)Cc2c(O[C@H](Cn3ccnc3)c3ccccc3)ccc3c2CCCC3=O)c1 [Compound 204, N-[(2R)-2-Hydroxypropyl]-3-{[(2-{[(1S)-2-(1H-imidazol-1-yl)-1-phenylethyl]oxy}-5-oxo-5,6,7,8-tetrahydro-1-naphthalenyl)methyl]sulfonyl}benzamide]
IC50: 0.65 nM

C=CCNC(=O)c1cccc(S(=O)(=O)Cc2c(O[C@H](Cn3ccnc3)c3ccccc3)ccc3c2CCCC3=O)c1 [Compound 205, N-Allyl-3-{[(2-{[(1S)-2-(1H-imidazol-1-yl)-1-phenylethyl]oxy}-5-oxo-5,6,7,8-tetrahydro-1-naphthalenyl)methyl]sulfonyl}benzamide]
IC50: 0.2 nM

C=CCNC(=O)c1ccc(S(=O)(=O)Cc2c(O[C@H](Cn3ccnc3)c3ccccc3)ccc3c2CCCC3=O)cc1 [Compound 206, N-Allyl-4-{[(2-{[(1S)-2-(1H-imidazol-1-yl)-1-phenylethyl]oxy}-5-oxo-5,6,7,8-tetrahydro-1-naphthalenyl)methyl]sulfonyl}benzamide]
IC50: 0.8 nM

C=CCNC(=O)c1ccccc1S(=O)(=O)Cc1c(O[C@H](Cn2ccnc2)c2ccccc2)ccc2c1CCCC2=O [Compound 207, N-Allyl-2-{[(2-{[(1S)-2-(1H-imidazol-1-yl)-1-phenylethyl]oxy}-5-oxo-5,6,7,8-tetrahydro-1-naphthalenyl)methyl]sulfonyl}benzamide]
IC50: 0.2 nM

C=CCNC(=O)c1ccccc1SCc1c(O[C@H](Cn2ccnc2)c2ccccc2)ccc2c1CCCC2=O [Compound 208, N-Allyl-2-{[(2-{[(1S)-2-(1H-imidazol-1-yl)-1-phenylethyl]oxy}-5-oxo-5,6,7,8-tetrahydro-1-naphthalenyl)methyl]sulfanyl}benzamide]
IC50: 0.2 nM

C=CCNC(=O)c1ccc(SCc2c(O[C@H](Cn3ccnc3)c3ccccc3)ccc3c2CCCC3=O)cc1 [Compound 209, N-Allyl-4-{[(2-{[(1S)-2-(1H-imidazol-1-yl)-1-phenylethyl]oxy}-5-oxo-5,6,7,8-tetrahydro-1-naphthalenyl)methyl]sulfanyl}benzamide]
IC50: 0.2 nM

C=CCNC(=O)c1cccc(SCc2c(O[C@H](Cn3ccnc3)c3ccccc3)ccc3c2CCCC3=O)c1 [Compound 210, N-Allyl-3-{[(2-{[(1S)-2-(1H-imidazol-1-yl)-1-phenylethyl]oxy}-5-oxo-5,6,7,8-tetrahydro-1-naphthalenyl)methyl]sulfanyl}benzamide]
IC50: 0.2 nM

C#CCNC(=O)c1ccccc1SCc1c(O[C@H](Cn2ccnc2)c2ccccc2)ccc2c1CCCC2=O [Compound 211, 2-{[(2-{[(1S)-2-(1H-Imidazol-1-yl)-1-phenylethyl]oxy}-5-oxo-5,6,7,8-tetrahydro-1-naphthalenyl)methyl]sulfanyl}-N-(2-propynyl)benzamide]
IC50: 0.2 nM

C#CCNC(=O)c1ccc(SCc2c(O[C@H](Cn3ccnc3)c3ccccc3)ccc3c2CCCC3=O)cc1 [Compound 212, 4-{[(2-{[(1S)-2-(1H-Imidazol-1-yl)-1-phenylethyl]oxy}-5-oxo-5,6,7,8-tetrahydro-1-naphthalenyl)methyl]sulfanyl}-N-(2-propynyl)benzamide]
IC50: 0.2 nM

C#CCNC(=O)c1cccc(SCc2c(O[C@H](Cn3ccnc3)c3ccccc3)ccc3c2CCCC3=O)c1 [Compound 213, 3-{[(2-{[(1S)-2-(1H-Imidazol-1-yl)-1-phenylethyl]oxy}-5-oxo-5,6,7,8-tetrahydro-1-naphthalenyl)methyl]sulfanyl}-N-(2-propynyl)benzamide]
IC50: 0.2 nM
